Reference: the NIST ThermoML archive (doi:10.1016/j.jct.2004.11.023)
Numbers after ± are expanded uncertainties.

Test: xn = mol fraction of the nth substance listed
Conditions: 101 kPa, Liquid, Vibrating tube method

Compound: Cc1cc(C)cc(C)c1 [1,3,5-trimethylbenzene] + CC(=O)c1ccccc1
- mass density (298.15 K, x1 = 1): 861.13 ± 0.44 kg/m3
- mass density (328.15 K, x1 = 1): 836.63 ± 0.43 kg/m3

Compound: Cc1cccc(C)c1 [1,3-dimethylbenzene] + CC(=O)c1ccccc1
- mass density (298.15 K, x1 = 1): 859.88 ± 0.44 kg/m3
- mass density (328.15 K, x1 = 1): 834.12 ± 0.43 kg/m3

Compound: CC(=O)c1ccccc1 [acetophenone] + Cc1cc(C)cc(C)c1
- mass density (298.15 K, x2 = 0): 1023.13 ± 0.52 kg/m3
- mass density (298.15 K, x2 = 0.09015): 1006.63 ± 0.51 kg/m3
- mass density (298.15 K, x2 = 0.185): 989.75 ± 0.5 kg/m3
- mass density (298.15 K, x2 = 0.2674): 975.43 ± 0.5 kg/m3
- mass density (298.15 K, x2 = 0.358): 960.07 ± 0.49 kg/m3
- mass density (298.15 K, x2 = 0.4569): 943.72 ± 0.48 kg/m3
- mass density (298.15 K, x2 = 0.5358): 930.98 ± 0.48 kg/m3
- mass density (298.15 K, x2 = 0.6409): 914.41 ± 0.47 kg/m3
- mass density (298.15 K, x2 = 0.7322): 900.4 ± 0.46 kg/m3
- mass density (298.15 K, x2 = 0.836): 884.84 ± 0.45 kg/m3
- mass density (298.15 K, x2 = 0.8961): 876.03 ± 0.45 kg/m3
- mass density (328.15 K, x2 = 0): 996.99 ± 0.51 kg/m3
- mass density (328.15 K, x2 = 0.09015): 980.65 ± 0.5 kg/m3
- mass density (328.15 K, x2 = 0.185): 963.9 ± 0.49 kg/m3
- mass density (328.15 K, x2 = 0.2674): 949.71 ± 0.48 kg/m3
- mass density (328.15 K, x2 = 0.358): 934.46 ± 0.48 kg/m3
- mass density (328.15 K, x2 = 0.4569): 918.28 ± 0.47 kg/m3
- mass density (328.15 K, x2 = 0.5358): 905.65 ± 0.46 kg/m3
- mass density (328.15 K, x2 = 0.6409): 889.25 ± 0.46 kg/m3
- mass density (328.15 K, x2 = 0.7322): 875.38 ± 0.45 kg/m3
- mass density (328.15 K, x2 = 0.836): 860 ± 0.44 kg/m3
- mass density (328.15 K, x2 = 0.8961): 851.31 ± 0.44 kg/m3

Compound: CC(=O)c1ccccc1 [acetophenone] + Cc1cccc(C)c1
- mass density (298.15 K, x2 = 0): 1023.12 ± 0.52 kg/m3
- mass density (298.15 K, x2 = 0.09263): 1007.97 ± 0.51 kg/m3
- mass density (298.15 K, x2 = 0.1807): 993.62 ± 0.5 kg/m3
- mass density (298.15 K, x2 = 0.2662): 979.65 ± 0.5 kg/m3
- mass density (298.15 K, x2 = 0.3566): 964.94 ± 0.49 kg/m3
- mass density (298.15 K, x2 = 0.4525): 949.31 ± 0.48 kg/m3
- mass density (298.15 K, x2 = 0.538): 935.34 ± 0.48 kg/m3
- mass density (298.15 K, x2 = 0.6252): 921.13 ± 0.47 kg/m3
- mass density (298.15 K, x2 = 0.7339): 903.38 ± 0.46 kg/m3
- mass density (298.15 K, x2 = 0.8479): 884.76 ± 0.45 kg/m3
- mass density (298.15 K, x2 = 0.8943): 877.15 ± 0.45 kg/m3
- mass density (328.15 K, x2 = 0): 996.98 ± 0.51 kg/m3
- mass density (328.15 K, x2 = 0.09263): 981.88 ± 0.5 kg/m3
- mass density (328.15 K, x2 = 0.1807): 967.52 ± 0.49 kg/m3
- mass density (328.15 K, x2 = 0.2662): 953.61 ± 0.49 kg/m3
- mass density (328.15 K, x2 = 0.3566): 938.89 ± 0.48 kg/m3
- mass density (328.15 K, x2 = 0.4525): 923.26 ± 0.47 kg/m3
- mass density (328.15 K, x2 = 0.538): 909.32 ± 0.47 kg/m3
- mass density (328.15 K, x2 = 0.6252): 895.13 ± 0.46 kg/m3
- mass density (328.15 K, x2 = 0.7339): 877.43 ± 0.45 kg/m3
- mass density (328.15 K, x2 = 0.8479): 858.85 ± 0.44 kg/m3
- mass density (328.15 K, x2 = 0.8943): 851.29 ± 0.44 kg/m3

Compound: CC(=O)c1ccccc1 [acetophenone] + Cc1ccccc1
- mass density (298.15 K, x2 = 0): 1023.12 ± 0.52 kg/m3
- mass density (298.15 K, x2 = 0.1016): 1008.8 ± 0.48 kg/m3
- mass density (298.15 K, x2 = 0.1982): 994.83 ± 0.44 kg/m3
- mass density (298.15 K, x2 = 0.257): 986.17 ± 0.41 kg/m3
- mass density (298.15 K, x2 = 0.3576): 971 ± 0.37 kg/m3
- mass density (298.15 K, x2 = 0.453): 956.2 ± 0.33 kg/m3
- mass density (298.15 K, x2 = 0.5369): 942.81 ± 0.3 kg/m3
- mass density (298.15 K, x2 = 0.6366): 926.48 ± 0.27 kg/m3
- mass density (298.15 K, x2 = 0.7154): 913.19 ± 0.24 kg/m3
- mass density (298.15 K, x2 = 0.8198): 895.09 ± 0.21 kg/m3
- mass density (298.15 K, x2 = 0.9019): 880.36 ± 0.18 kg/m3
- mass density (328.15 K, x2 = 0): 997.01 ± 0.51 kg/m3
- mass density (328.15 K, x2 = 0.1016): 982.57 ± 0.46 kg/m3
- mass density (328.15 K, x2 = 0.1982): 968.48 ± 0.43 kg/m3
- mass density (328.15 K, x2 = 0.257): 959.73 ± 0.4 kg/m3
- mass density (328.15 K, x2 = 0.3576): 944.41 ± 0.36 kg/m3
- mass density (328.15 K, x2 = 0.453): 929.46 ± 0.33 kg/m3
- mass density (328.15 K, x2 = 0.5369): 915.9 ± 0.3 kg/m3
- mass density (328.15 K, x2 = 0.6366): 899.39 ± 0.26 kg/m3
- mass density (328.15 K, x2 = 0.7154): 885.89 ± 0.24 kg/m3
- mass density (328.15 K, x2 = 0.8198): 867.55 ± 0.21 kg/m3
- mass density (328.15 K, x2 = 0.9019): 852.62 ± 0.18 kg/m3

Compound: CC(=O)c1ccccc1 [acetophenone] + c1ccccc1
- mass density (298.15 K, x2 = 0): 1023.11 ± 0.52 kg/m3
- mass density (298.15 K, x2 = 0.1057): 1011.02 ± 0.48 kg/m3
- mass density (298.15 K, x2 = 0.186): 1001.34 ± 0.44 kg/m3
- mass density (298.15 K, x2 = 0.2855): 988.94 ± 0.4 kg/m3
- mass density (298.15 K, x2 = 0.3792): 976.58 ± 0.37 kg/m3
- mass density (298.15 K, x2 = 0.4626): 964.98 ± 0.33 kg/m3
- mass density (298.15 K, x2 = 0.5484): 952.49 ± 0.3 kg/m3
- mass density (298.15 K, x2 = 0.6248): 940.71 ± 0.27 kg/m3
- mass density (298.15 K, x2 = 0.7289): 923.84 ± 0.24 kg/m3
- mass density (298.15 K, x2 = 0.8003): 911.56 ± 0.22 kg/m3
- mass density (298.15 K, x2 = 0.8953): 894.23 ± 0.19 kg/m3
- mass density (328.15 K, x2 = 0): 997 ± 0.51 kg/m3
- mass density (328.15 K, x2 = 0.1057): 984.62 ± 0.46 kg/m3
- mass density (328.15 K, x2 = 0.186): 974.7 ± 0.43 kg/m3
- mass density (328.15 K, x2 = 0.2855): 961.91 ± 0.39 kg/m3
- mass density (328.15 K, x2 = 0.3792): 949.15 ± 0.36 kg/m3
- mass density (328.15 K, x2 = 0.4626): 937.16 ± 0.33 kg/m3
- mass density (328.15 K, x2 = 0.5484): 924.19 ± 0.3 kg/m3
- mass density (328.15 K, x2 = 0.6248): 911.99 ± 0.27 kg/m3
- mass density (328.15 K, x2 = 0.7289): 894.3 ± 0.23 kg/m3
- mass density (328.15 K, x2 = 0.8003): 881.44 ± 0.21 kg/m3
- mass density (328.15 K, x2 = 0.8953): 863.18 ± 0.19 kg/m3

Compound: c1ccccc1 [benzene] + CC(=O)c1ccccc1
- mass density (298.15 K, x1 = 1): 873.64 ± 0.16 kg/m3
- mass density (328.15 K, x1 = 1): 841.51 ± 0.16 kg/m3

Compound: Cc1ccccc1 [toluene] + CC(=O)c1ccccc1
- mass density (298.15 K, x1 = 1): 862.27 ± 0.16 kg/m3
- mass density (328.15 K, x1 = 1): 834.26 ± 0.16 kg/m3
